Measurements published in US20120315283A1, “METHODS OF PROMOTING TISSUE GROWTH AND TISSUE REGENERATION” (DANA-FARBER CANCER INSTITUTE, INC., priority 2010, published 2012).
“Also recorded” adds a separate entry of the source.

Experiments:
[1] = tested on: mice; experiment: Lung growth following left pneumonectomy; type: in vivo, mouse; settings: day 4 post left pneumonectomy, vs vehicle-treated mice, p<0.05
From the text: As shown herein, epoxyeicosatrienoic acids (EETs) stimulate angiogenesis, in part via the VEGF signaling network. Since compensated lung growth is dependent on VEGF-induced angiogenesis, it was hypothesized that endothelial cells (ECs) stimulate lung growth via production of EETs. To confirm the effects of CYP2C8 overexpression, EET levels were increased by inhibition of soluble epoxide hydrolase (sEH) following left penumonectomy. […] In contrast, there was no significant change in baseline lung volume/body weight ratio after sham operation.
As shown herein, epoxyeicosatrienoic acids (EETs) stimulate angiogenesis, in part via the VEGF signaling network. Since compensated lung growth is dependent on VEGF-induced angiogenesis, it was hypothesized that endothelial cells (ECs) stimulate lung growth via production of EETs. Transgenic (Tg) mice with EC-specific overexpression of CYP2C8 (Tie2 promoter-driven) were used to study the consequence of increased EETs on lung growth following left pneumonectomy. To confirm the effects of CYP2C8 overexpression, EET levels were increased by inhibition of soluble epoxide hydrolase (sEH). EC-specific overexpression of CYP2C8 promoted contralateral lung growth following unilateral pneumectomy. Lung volume/body weight on day 4 post-pneumonectomy were increased by 23% (p<0.001) in Tg mice compared to WT mice (FIG. 12). […]

[2] = tested on: mice; experiment: Liver regeneration following partial hepatectomy; type: in vivo, mouse; settings: day 4 following partial hepatectomy, 14,15-EET 15 μg/kg/day via minipump, TUPS 10 mg/kg/day; for liver regeneration: vs vehicle/control; for increase in liver regeneration (liver/body weight ratio): vs vehicle
From the text: There were no significant differences in liver/body weight ratio at baseline or following sham operation (FIG. 6D). […] Endothelial cell proliferation was increased in the Tie2-CYP2C8-Tr mice when compared to WT mice (FIG. 6D).

[3] = tested on: Lewis lung carcinoma (LLC); experiment: Spontaneous LLC metastasis model (primary tumor resection); type: in vivo, mouse; settings: for spontaneous LLC liver, kidney and lymph node metastasis / spontaneous LLC lung metastasis: after LLC resection, 12 days, t-AUCB and TUPS 10 mg/kg/day; for spontaneous LLC liver, kidney and lymph node metastasis: 14,15-EET 15 μg/kg/day, vehicle-treated mice do not develop liver metastasis; for spontaneous LLC lung metastasis: 14,15-EET and 14,15-DHET 15 μg/kg/day; for 14,15-EET-induced spontaneous LLC (lung) metastasis: EET antagonist 0.21 mg/mouse co-administered with 14,15-EET 15 μg/kg/day following LLC resection, day 12
From the text: The role of non-cell autonomous effects of endothelial-derived EETs in tumor metastasis was unknown.

[4] = tested on: mice; experiment: Wound healing (ear punch wound assay); type: in vivo, mouse; settings: systemic TUPS 10 mg/kg/day, day 4, vs vehicle
From the text: In one embodiment, a full-thickness wound is effected by removing a section of skin (e.g., 1.5 mm diameter) from the dorsal surface (e.g., back) of an anesthetized animal by e.g., surgical incision. If so desired, the section of skin to be wounded can be pre-treated with a candidate pro-angiogenic factor prior to wound induction by e.g., subcutaneous injection. Alternatively, the wound can be treated using a candidate pro-angiogenic factor coincident with or immediately following wounding using methods known to one of skill in the art. The size, area, rate of healing, contraction and histology of the wound are assessed at different time points by methods known to those of skill in the art. The wound size of an animal is assessed by measuring the unclosed wound area compared to the original wound area. Wound healing can be expressed as either percent wound closure or percent wound closure rate. Wounds can be harvested at different time points by euthanizing the animal and removing a section of skin surrounding the wound site for histological analysis if so desired.
An ear punch model can also be used to assess rates of angiogenesis or wound healing, in a design similar to that for the full thickness dorsal back skin assay. The model consists of wounding the ear of an animal using a circular punch of a standard size (e.g., 2.25 mm). […]

[5] = tested on: endothelial cells; experiment: Endothelial cell migration; type: cell-based
[6] = tested on: B16F10 melanoma; experiment: Spontaneous B16F10 metastasis after primary tumor resection; type: in vivo, mouse; settings: 21 days of treatment post B16F10 resection, 10 mg/kg/day
[7] = tested on: Lewis lung carcinoma (LLC); experiment: Primary LLC tumor growth; type: in vivo, mouse; settings: for primary LLC tumor growth: systemic, 14,15-EET 15 μg/kg/day minipump, t-AUCB in LLC-GFP tumors, 13 days of treatment, 14,15-EEZE 0.21 mg/mouse, established tumors
[8] = tested on: LLC tumor cells; experiment: Tumor cell (LLC) migration; type: cell-based, mouse; settings: 14,15-EEZE
[9] = tested on: B16F10 tumor cells; experiment: In vitro tumor cell production of VEGF, B16F10; type: cell-based, mouse; settings: 14,15-EET
[10] = tested on: mice; experiment: Endometriosis (ectopically implanted uterine tissue); type: in vivo, mouse; settings: systemic 14,15-EET 15 μg/kg/day via minipump
[11] = tested on: LLC tumor cells; experiment: In vitro tumor cell production of VEGF, LLC; type: cell-based, mouse; settings: 14,15-EET
[12] = tested on: VEGF production; experiment: β-galactosidase staining of LLC tumors in VEGF-LacZ-Tr mice; type: in vivo, mouse; settings: systemic 14,15-EET 15 μg/kg/day, absent in non-treated size-matched tumors
From the text: However, analysis of LLC tumors in VEGF-LacZ-Tr mice in which the LacZ reporter was introduced into the VEGF locus (A. S. Maharaj, M. Saint-Geniez, A. E. Maldonado, P. A. D'Amore, Am J Pathol 168, 639 2006).

[13] = TSP1 null mice, 14,15-EEZE 0.21 mg/mouse

Compound: CS(=O)(=O)N1CCC(NC(=O)Nc2ccc(OC(F)(F)F)cc2)CC1 [TUPS, 1-(1-methanesulfonyl-piperidin-4-yl)-3-(4-trifluoromethoxy-phenyl)-urea]
- lung growth/body weight (lung regeneration) [1]: increase in lung regeneration; also recorded: stimulated lung growth/body weight
- liver regeneration [2]: increases liver regeneration
- increase in liver regeneration (liver/body weight ratio) [2]: 38%
- spontaneous LLC liver, kidney and lymph node metastasis [3]: induces spontaneous liver metastasis; also recorded: dramatically stimulated; also recorded: increase liver metastasis
- spontaneous LLC lung metastasis [3]: dramatically stimulated
- wound healing [4]: accelerates wound healing; also recorded: significantly accelerated wound healing
- VEGF-mediated endothelial migration ([5]; VEGF-mediated): stimulate VEGF-mediated endothelial migration
- basal endothelial migration ([5]; basal, without VEGF): no significant effects
- spontaneous B16F10 axillary lymph node metastasis [6]: dramatically stimulated; also recorded: increase spontaneous B16F10 axillary lymph node metastasis

Compound: CCCCCC1OC1CCCCCCC/C=C\CCCC(=O)O (centres unmarked) [14,15-EEZE]
- 14,15-EET-induced spontaneous LLC (lung) metastasis [3]: reduced lung metastasis
- 14,15-EET-induced macroscopic liver and lymph node metastasis ([3]; EET antagonist co-administered with 14,15-EET following LLC resection): prevented macroscopic liver and lymph node metastasis
- survival ([3]; LLC resection metastasis model, 14,15-EEZE 0.21 mg/mouse): prolongs survival
- plasma VEGF levels ([3]; spontaneous LLC lung metastasis model, 14,15-EEZE 0.21 mg/mouse): reduces plasma VEGF levels
- primary LLC tumor growth in TSP1 null mice [7, 13]: does not significantly inhibit primary LLC tumor growth
- tumor suppression by the EET antagonist [7, 13]: 24%
- tumor suppression by the EET antagonist ([7]; WT mice, 14,15-EEZE 0.21 mg/mouse): 62%
- primary LLC tumor growth [7]: reduced primary LLC growth; also recorded: inhibits primary LLC growth
- migration of LLC tumor cells [8]: no significant effect; also recorded: not tumor cell (LLC) migration
- endothelial cell migration (VEGF-induced), inhibition ([5]; 14,15-EEZE, dose-dependent): inhibited endothelial migration in a dose-dependent fashion; also recorded: inhibits VEGF-induced endothelial cell

Compound: CCCCCC1OC1CCCCCCCC=CCCCC(=O)NS(C)(=O)=O (centres unmarked) [14,15-EEZE-mSI]
- 14,15-EET-induced spontaneous LLC (lung) metastasis [3]: inhibits lung metastasis induced by 14,15-EET; also recorded: inhibits 14,15-EET- (15 μg/kg/day) induced spontaneous LLC metastasis

Compound: CCCCCC(O)C(O)C/C=C\C/C=C\C/C=C\CCCC(=O)O (centres unmarked) [14,15-DHET]
- spontaneous LLC lung metastasis [3]: has no effect relative to control; also recorded: does not stimulate metastasis

Compound: CCCCCC1OC1C/C=C\C/C=C\C/C=C\CCCC(=O)O (centres unmarked) [14,15-EET]
- VEGF production by B16F10 tumor cells in vitro [9]: no significant effect
- increase in endometriosis ([10]; WT mice, day 6, vs vehicle): 254%
- endometriosis ([10]; day 6, percent of lesions established and area of established lesions): endometriosis is stimulated
- VEGF production by LLC tumor cells in vitro [11]: no significant effect
- liver regeneration [2]: stimulates liver regeneration
- increase in liver regeneration (liver/body weight ratio) [2]: 21%
- increase in the number of surface lung metastases ([3]; WT mice, 14,15-EET via osmotic mini-pumps at time of LLC resection, 12 days after resection, vs vehicle): 3 fold
- spontaneous LLC liver, kidney and lymph node metastasis [3]: induction of liver, kidney and distant lymph node metastasis; also recorded: increases spontaneous LLC lung metastasis and distant femoral lymph node metastasis
- spontaneous LLC lung metastasis [3]: increases spontaneous lung and distant femoral lymph node metastasis; also recorded: increases spontaneous LLC lung metastasis
- primary LLC tumor growth [7]: significantly accelerated primary LLC tumor growth; also recorded: increases primary LLC tumor growth
- β-galactosidase staining (marker of VEGF production) in tumor endothelium and stromal fibroblasts [12]: show β-galactosidase staining; also recorded: stained positively
